# Experimental data taken from ChEMBL document CHEMBL1201862, “PubChem BioAssay data set” (2004).
#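 Tested at 5 concentrations; 48 h exposure; 96-well plates; endpoints linearly interpolated, else capped at highest concentration. Here, GI50 denotes the concentration required for 50% inhibition of growth.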 The source made the active and inactive calls. Rule as the data show it: active = GI50 up to about 1.1 µM and inactive = higher.
# Columns and labels:
# Assay in all cases: inhibition of tumour cell growth, NCI panel, 48 h
# [1] = system: EKVX
# [2] = system: LOX IMVI
# [3] = system: HCT-15
# [4] = system: SW-620
# [5] = system: LXFL 529
# [6] = system: HOP-18
# [7] = system: SF-268
# [8] = system: DLD-1
# [9] = system: K562
# [10] = system: MOLT-4
# [11] = system: SNB-75
# [12] = system: UO-31
# [13] = system: M14
# [14] = system: SF-539
# [15] = system: A549
# [16] = system: HCC 2998
# [17] = system: CAKI-1
# [18] = system: TK-10
# [19] = system: OVCAR-5
# [20] = system: UACC-257
# [21] = system: SNB-19
# [22] = system: HOP-62
# [23] = system: M19-MEL
# [24] = system: OVCAR-3
# [25] = system: U-251
# [26] = system: HL-60
# [27] = system: KM12
# [28] = system: NCI-H460
# [29] = system: NCI-H23
# [30] = system: SR
# [31] = system: NCI-H522
# [32] = system: UACC-62
# [33] = system: HT-29
# [34] = system: CCRF-CEM
# [35] = system: SF-295
# [36] = system: RXF 393
# [37] = system: SK-MEL-28
# [38] = system: SK-MEL-5
# [39] = system: DMS-114
# [40] = system: IGROV-1
# [41] = system: COLO 205
# [42] = system: 786-0
# [43] = system: HOP-92
# [44] = system: Malme-3M
# [45] = system: NCI-H226
# [46] = system: RPMI-8226
# [47] = system: OVCAR-4
# [48] = system: SK-OV-3
# [49] = system: KM-20L2
# [50] = system: ACHN
# [51] = system: SN12C
# [52] = system: DMS-273
# [53] = system: OVCAR-8
# [54] = system: HCT-116
# [55] = system: SK-MEL-2
# [56] = system: SNB-78
# [57] = system: XF498
# [58] = system: A498
smiles,measurement,setting,value
C[C@]12CCc3nn(-c4ccccc4)nc3C1CC[C@@H]1C2CC[C@]2(C)C(=O)CCC12 (some centres not stated),GI50,[1],> 100 µM (inactive)
same,GI50,[2],82.2 µM (inactive)
same,GI50,[3],> 100 µM
same,GI50,[4],> 100 µM (inactive)
same,GI50,[5],> 100 µM (inactive)
same,GI50,[6],> 100 µM (inactive)
same,GI50,[7],> 100 µM (inactive)
same,GI50,[8],93.3 µM (inactive)
same,GI50,[9],54.3 µM (inactive)
same,GI50,[10],> 100 µM (inactive)
same,GI50,[11],> 100 µM (inactive)
same,GI50,[12],> 100 µM (inactive)
same,GI50,[13],> 100 µM (inactive)
same,GI50,[14],> 100 µM (inactive)
same,GI50,[15],> 100 µM (inactive)
same,GI50,[16],> 100 µM (inactive)
same,GI50,[17],> 100 µM (inactive)
same,GI50,[18],> 100 µM (inactive)
same,GI50,[19],> 100 µM (inactive)
same,GI50,[20],> 100 µM (inactive)
same,GI50,[21],> 100 µM (inactive)
same,GI50,[22],> 100 µM (inactive)
same,GI50,[23],> 100 µM (inactive)
same,GI50,[24],> 100 µM (inactive)
same,GI50,[25],> 100 µM (inactive)
same,GI50,[26],> 100 µM (inactive)
same,GI50,[27],> 100 µM (inactive)
same,GI50,[28],> 100 µM (inactive)
same,GI50,[29],> 100 µM (inactive)
same,GI50,[30],> 100 µM (inactive)
same,GI50,[31],> 100 µM (inactive)
same,GI50,[32],> 100 µM (inactive)
same,GI50,[33],> 100 µM (inactive)
same,GI50,[34],> 100 µM (inactive)
same,GI50,[35],> 100 µM (inactive)
same,GI50,[36],> 100 µM (inactive)
same,GI50,[37],> 100 µM (inactive)
same,GI50,[38],> 100 µM (inactive)
same,GI50,[39],> 100 µM (inactive)
same,GI50,[40],> 100 µM (inactive)
same,GI50,[41],> 100 µM (inactive)
same,GI50,[42],> 100 µM (inactive)
same,GI50,[43],> 100 µM (inactive)
same,GI50,[44],> 100 µM (inactive)
same,GI50,[45],> 100 µM (inactive)
same,GI50,[46],> 100 µM (inactive)
same,GI50,[47],> 100 µM (inactive)
same,GI50,[48],> 100 µM (inactive)
same,GI50,[49],> 100 µM (inactive)
same,GI50,[50],> 100 µM (inactive)
same,GI50,[51],> 100 µM (inactive)
same,GI50,[52],> 100 µM (inactive)
same,GI50,[53],94.2 µM (inactive)
same,GI50,[54],> 100 µM (inactive)
same,GI50,[55],> 100 µM (inactive)
same,GI50,[56],> 100 µM (inactive)
N#C/C(=C\c1ccc(O)cc1O)C(N)=O,GI50,[1],> 100 µM (inactive)
same,GI50,[2],> 100 µM (inactive)
same,GI50,[3],> 100 µM
same,GI50,[4],> 100 µM (inactive)
same,GI50,[5],> 100 µM (inactive)
same,GI50,[7],> 100 µM (inactive)
same,GI50,[8],67.1 µM (inactive)
same,GI50,[9],> 100 µM (inactive)
same,GI50,[10],58.6 µM (inactive)
same,GI50,[11],16.7 µM (inactive)
same,GI50,[12],33.6 µM (inactive)
same,GI50,[13],82.2 µM (inactive)
same,GI50,[14],> 100 µM (inactive)
same,GI50,[15],> 100 µM (inactive)
same,GI50,[16],> 100 µM (inactive)
same,GI50,[17],58.1 µM (inactive)
same,GI50,[18],> 100 µM (inactive)
same,GI50,[19],> 100 µM (inactive)
same,GI50,[20],51.1 µM (inactive)
same,GI50,[21],87.9 µM (inactive)
same,GI50,[22],> 100 µM (inactive)
same,GI50,[57],34.2 µM (inactive)
same,GI50,[23],> 100 µM (inactive)
same,GI50,[24],> 100 µM (inactive)
same,GI50,[25],> 100 µM (inactive)
same,GI50,[26],53.6 µM (inactive)
same,GI50,[27],> 100 µM (inactive)
same,GI50,[28],> 100 µM (inactive)
same,GI50,[29],58.1 µM (inactive)
same,GI50,[31],28.3 µM (inactive)
same,GI50,[32],58.6 µM (inactive)
same,GI50,[33],29.8 µM (inactive)
same,GI50,[34],> 100 µM (inactive)
same,GI50,[35],> 100 µM (inactive)
same,GI50,[36],20.5 µM (inactive)
same,GI50,[37],93.3 µM (inactive)
same,GI50,[40],> 100 µM (inactive)
same,GI50,[41],12.9 µM (inactive)
same,GI50,[42],> 100 µM (inactive)
same,GI50,[43],46.1 µM (inactive)
same,GI50,[44],90.8 µM (inactive)
same,GI50,[45],41.6 µM (inactive)
same,GI50,[46],55.6 µM (inactive)
same,GI50,[47],> 100 µM (inactive)
same,GI50,[48],45.6 µM (inactive)
same,GI50,[49],28.2 µM (inactive)
same,GI50,[58],65 µM (inactive)
same,GI50,[50],32.7 µM (inactive)
same,GI50,[51],> 100 µM (inactive)
same,GI50,[52],> 100 µM (inactive)
same,GI50,[53],> 100 µM (inactive)
same,GI50,[54],94.2 µM (inactive)
same,GI50,[55],98.4 µM (inactive)
same,GI50,[56],> 100 µM (inactive)
[N-]=[N+]=CC(=O)c1ccccc1C#CCCc1ccccc1,GI50,[1],24.5 µM (inactive)
same,GI50,[2],30.1 µM (inactive)
same,GI50,[3],26.1 µM
same,GI50,[4],32.7 µM (inactive)
same,GI50,[6],40.3 µM (inactive)
same,GI50,[8],39.4 µM (inactive)
same,GI50,[9],27.5 µM (inactive)
same,GI50,[10],12.1 µM (inactive)
same,GI50,[11],15.6 µM (inactive)
same,GI50,[12],22.7 µM (inactive)
same,GI50,[13],38.8 µM (inactive)
same,GI50,[14],36.6 µM (inactive)
same,GI50,[15],27.2 µM (inactive)
same,GI50,[16],31.8 µM (inactive)
same,GI50,[18],72.8 µM (inactive)
same,GI50,[19],50.5 µM (inactive)
same,GI50,[20],23.9 µM (inactive)
same,GI50,[21],38.3 µM (inactive)
same,GI50,[22],31.6 µM (inactive)
same,GI50,[57],12.1 µM (inactive)
same,GI50,[24],20.2 µM (inactive)
same,GI50,[25],10.2 µM (inactive)
same,GI50,[26],8.05 µM (inactive)
same,GI50,[27],41.2 µM (inactive)
same,GI50,[28],23.2 µM (inactive)
same,GI50,[29],21.5 µM (inactive)
same,GI50,[30],28.2 µM (inactive)
same,GI50,[31],1.05 µM (active)
same,GI50,[32],18.6 µM (inactive)
same,GI50,[33],16.6 µM (inactive)
same,GI50,[34],10.9 µM (inactive)
same,GI50,[35],40.4 µM (inactive)
same,GI50,[36],30 µM (inactive)
same,GI50,[37],48.2 µM (inactive)
same,GI50,[38],15.7 µM (inactive)
same,GI50,[39],5.83 µM (inactive)
same,GI50,[40],36.9 µM (inactive)
same,GI50,[41],32 µM (inactive)
same,GI50,[43],18.9 µM (inactive)
same,GI50,[44],27.4 µM (inactive)
same,GI50,[45],29.4 µM (inactive)
same,GI50,[46],14 µM (inactive)
same,GI50,[47],44.2 µM (inactive)
same,GI50,[48],15.1 µM (inactive)
same,GI50,[49],23.6 µM (inactive)
same,GI50,[58],28.4 µM (inactive)
same,GI50,[50],22.6 µM (inactive)
same,GI50,[51],35.5 µM (inactive)
same,GI50,[52],23.2 µM (inactive)
same,GI50,[53],27.8 µM (inactive)
same,GI50,[54],16.6 µM (inactive)
same,GI50,[55],27.2 µM (inactive)
